Experiment: Particle size distribution by Malvern Mastersizer S particle size analyzer
Format: physicochemical
Conditions: for particle size D[v, 0.5] / particle size D[v, 0.9]: crystals as isolated after crystallization from isobutyl acetate and drying, by volume, mean of nine readings, hydrochloride; for AFTER MILLING D[v, 0..5] / AFTER MILLING D[v, 0.9]: after milling 1 hour, Specac Specamill, three agate balls, maximum amplitude; for BEFORE MILLING D[v, 0.9]: in µm (unit assumed)
Protocol: The particle size for cinacalcet hydrochloride was measured using a Malvern Mastersizer S particle size analyzer with an MS1 Small Volume Sample Dispersion Unit stirred cell. A 300RF mm lens and a beam length of 2.4 mm were used. Samples for analysis were prepared by dispersing a weighed amount of cinacalcet hydrochloride (approximately 60 mg) in 20 mL of sample dispersant, previously prepared by dilution of 1.5 g of Soybean Lecithin to 200 mL with Isopar G. The suspension was delivered drop-wise to the background-corrected measuring cell filled with dispersant (Isopar G) until the obscuration reached the desired level. Nine repeated readings of the volume distributions were taken. For characterization, the values of D50 and D90 (by volume) were selected and reported as the mean of the nine values measured.

[1] = listed as Cinacalcet hydrochloride from Example 7, hydrochloride
[2] = listed as Cinacalcet hydrochloride from Example 4, hydrochloride
[3] = listed as Cinacalcet hydrochloride from Example 9, hydrochloride

| SMILES | particle size D[v, 0.5] [μm] | particle size D[v, 0.9] [μm] | other results |
| --- | --- | --- | --- |
| C[C@@H](NCCCc1cccc(C(F)(F)F)c1)c1cccc2ccccc12.Cl [Example 2, cinacalcet hydrochloride] | 20.7 | 86.1 | – |
| C[C@@H](NCCCc1cccc(C(F)(F)F)c1)c1cccc2ccccc12.Cl [Example 7, cinacalcet hydrochloride] | 70.3 | 431.7 | AFTER MILLING D[v, 0..5] [1]: 21.2 µm; AFTER MILLING D[v, 0.9] [1]: 83.3 µm; BEFORE MILLING D[v, 0..5] [1]: 70.3 µm; BEFORE MILLING D[v, 0.9] [1]: 431.7 |
| C[C@@H](NCCCc1cccc(C(F)(F)F)c1)c1cccc2ccccc12.Cl [Example 6, cinacalcet hydrochloride] | 65.0 | 392.3 | – |
| C[C@@H](NCCCc1cccc(C(F)(F)F)c1)c1cccc2ccccc12.Cl [Example 3, cinacalcet hydrochloride] | 49.8 | 387.9 | – |
| C[C@@H](NCCCc1cccc(C(F)(F)F)c1)c1cccc2ccccc12.Cl [Example 4, cinacalcet hydrochloride] | 57.7 | 403.9 | AFTER MILLING D[v, 0..5] [2]: 25.7 µm; AFTER MILLING D[v, 0.9] [2]: 91.8 µm; BEFORE MILLING D[v, 0..5] [2]: 57.7 µm; BEFORE MILLING D[v, 0.9] [2]: 403.9 |

Continued, in another order:

| particle size D[v, 0.5] [μm] | particle size D[v, 0.9] [μm] | SMILES | other results |
| --- | --- | --- | --- |
| 76.4 | 456.0 | C[C@@H](NCCCc1cccc(C(F)(F)F)c1)c1cccc2ccccc12.Cl [Example 5, cinacalcet hydrochloride] | – |
| 67.2 | 459.0 | C[C@@H](NCCCc1cccc(C(F)(F)F)c1)c1cccc2ccccc12.Cl [Example 8, cinacalcet hydrochloride] | – |
| 74.0 | 518.3 | C[C@@H](NCCCc1cccc(C(F)(F)F)c1)c1cccc2ccccc12.Cl [Example 9, cinacalcet hydrochloride] | AFTER MILLING D[v, 0..5] [3]: 25.1 µm; AFTER MILLING D[v, 0.9] [3]: 76.7 µm; BEFORE MILLING D[v, 0..5] [3]: 74 µm; BEFORE MILLING D[v, 0.9] [3]: 518.3 |
| 99.8 | 466.9 | C[C@@H](NCCCc1cccc(C(F)(F)F)c1)c1cccc2ccccc12.Cl [Example 11, cinacalcet hydrochloride] | – |
| 23.4 | 95.4 | C[C@@H](NCCCc1cccc(C(F)(F)F)c1)c1cccc2ccccc12.Cl [Example 1, cinacalcet hydrochloride] | – |
